One test has as its target Coagulation factor X (Homo sapiens, UniProt P00742). The test is described as follows: Compound was evaluated for the inhibitory activity against Coagulation factor X.
Test [1] has as its target T1, Tissue-type plasminogen activator (Homo sapiens, UniProt P00750). In words: Compound was evaluated for the inhibitory activity against t-PA.
The target of a further test is Prothrombin (Homo sapiens, UniProt P00734). In words: Compound was evaluated for the inhibitory activity against thrombin.
Test [2] has as its target Vitamin K-dependent protein C (Homo sapiens, UniProt P04070). In words: Compound was evaluated for the inhibitory activity against Activated protein C.
The target of test [3] is T2, Serine protease 1 (Homo sapiens, UniProt P07477). The test is described as follows: Compound was evaluated for the inhibitory activity against trypsin.
In another test the target is Plasminogen (Homo sapiens, UniProt P00747). In words: Compound was evaluated for the inhibitory activity against plasmin.
In test [4] the target is T2, Serine protease 1. The test is described as follows: Compound was evaluated for the inhibitory activity against trypsin.
Test [5] has as its target T1, Tissue-type plasminogen activator. In words: Compound was evaluated for the inhibitory activity against t-PA.

Data on 24 compounds can be found in ChEMBL document CHEMBL1133063, “Nonbenzamidine compounds as selective factor Xa inhibitors” (Bioorg Med Chem Lett, 2000).

Structures are written as SMILES. Some results are limits rather than exact numbers.

Sequence of Coagulation factor X (P00742 41-179 limits assumed): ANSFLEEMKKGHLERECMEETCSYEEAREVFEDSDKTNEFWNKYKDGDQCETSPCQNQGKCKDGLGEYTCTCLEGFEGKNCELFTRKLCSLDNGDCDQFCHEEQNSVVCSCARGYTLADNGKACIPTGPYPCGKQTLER
Sequence of Coagulation factor X (P00742 235-488 limits assumed): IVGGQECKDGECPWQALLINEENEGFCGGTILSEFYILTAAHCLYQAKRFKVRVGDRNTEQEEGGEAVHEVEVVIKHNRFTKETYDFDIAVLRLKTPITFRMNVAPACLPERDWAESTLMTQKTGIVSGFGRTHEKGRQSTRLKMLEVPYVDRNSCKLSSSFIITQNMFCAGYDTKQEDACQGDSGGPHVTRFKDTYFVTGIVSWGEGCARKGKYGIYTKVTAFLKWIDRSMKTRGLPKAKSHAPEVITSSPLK
Sequence of Vitamin K-dependent protein C (P04070 43-197 limits assumed): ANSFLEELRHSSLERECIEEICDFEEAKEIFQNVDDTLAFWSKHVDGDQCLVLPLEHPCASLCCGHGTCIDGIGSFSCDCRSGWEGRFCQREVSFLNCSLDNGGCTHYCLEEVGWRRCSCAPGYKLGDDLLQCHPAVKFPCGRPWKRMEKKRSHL
Sequence of Vitamin K-dependent protein C (P04070 212-461 limits assumed): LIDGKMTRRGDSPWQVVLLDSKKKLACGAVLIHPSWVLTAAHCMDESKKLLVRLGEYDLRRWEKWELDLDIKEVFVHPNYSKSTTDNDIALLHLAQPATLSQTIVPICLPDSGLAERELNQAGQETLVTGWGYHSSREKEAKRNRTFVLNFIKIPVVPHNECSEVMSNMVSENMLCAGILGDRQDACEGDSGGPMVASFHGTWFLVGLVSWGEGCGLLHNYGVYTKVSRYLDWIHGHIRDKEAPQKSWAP
T1 sequence (P00750 whole entry): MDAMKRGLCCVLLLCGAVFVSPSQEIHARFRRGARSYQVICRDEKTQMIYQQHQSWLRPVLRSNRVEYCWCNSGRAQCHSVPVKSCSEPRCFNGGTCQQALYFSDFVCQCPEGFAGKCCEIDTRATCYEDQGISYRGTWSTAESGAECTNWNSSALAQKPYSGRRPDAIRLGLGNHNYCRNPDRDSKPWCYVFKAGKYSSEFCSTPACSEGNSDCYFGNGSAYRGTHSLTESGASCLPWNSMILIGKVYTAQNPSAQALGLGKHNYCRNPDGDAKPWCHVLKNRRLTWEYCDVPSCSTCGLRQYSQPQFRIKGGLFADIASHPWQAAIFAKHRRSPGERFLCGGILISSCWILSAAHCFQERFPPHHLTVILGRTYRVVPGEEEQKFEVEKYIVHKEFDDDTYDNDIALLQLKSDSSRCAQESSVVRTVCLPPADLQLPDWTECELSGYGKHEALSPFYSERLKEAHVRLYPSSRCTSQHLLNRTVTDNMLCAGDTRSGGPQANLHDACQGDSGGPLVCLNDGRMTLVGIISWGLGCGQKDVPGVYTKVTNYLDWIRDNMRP
Sequence of Plasminogen (P00747 97-580 limits assumed): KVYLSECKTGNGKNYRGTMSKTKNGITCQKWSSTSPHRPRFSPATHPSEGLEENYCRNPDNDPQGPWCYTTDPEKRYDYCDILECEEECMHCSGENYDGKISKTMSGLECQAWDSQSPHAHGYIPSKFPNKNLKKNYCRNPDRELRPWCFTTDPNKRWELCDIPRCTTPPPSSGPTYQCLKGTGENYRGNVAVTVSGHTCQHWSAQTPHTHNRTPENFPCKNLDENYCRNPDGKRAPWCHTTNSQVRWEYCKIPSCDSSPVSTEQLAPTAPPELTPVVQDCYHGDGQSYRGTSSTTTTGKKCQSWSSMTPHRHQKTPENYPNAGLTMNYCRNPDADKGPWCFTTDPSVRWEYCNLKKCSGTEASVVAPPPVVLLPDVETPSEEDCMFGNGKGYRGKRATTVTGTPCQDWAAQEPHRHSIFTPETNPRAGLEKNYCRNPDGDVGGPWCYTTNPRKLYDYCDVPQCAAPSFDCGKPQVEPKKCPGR
Sequence of Plasminogen (P00747 581-810 limits assumed): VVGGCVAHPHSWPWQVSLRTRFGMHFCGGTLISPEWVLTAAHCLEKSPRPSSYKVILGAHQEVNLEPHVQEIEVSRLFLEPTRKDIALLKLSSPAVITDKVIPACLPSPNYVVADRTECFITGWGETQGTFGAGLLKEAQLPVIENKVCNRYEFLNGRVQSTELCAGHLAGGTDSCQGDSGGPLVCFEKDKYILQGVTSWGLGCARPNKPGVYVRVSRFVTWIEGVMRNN
T2 sequence (P07477 whole entry): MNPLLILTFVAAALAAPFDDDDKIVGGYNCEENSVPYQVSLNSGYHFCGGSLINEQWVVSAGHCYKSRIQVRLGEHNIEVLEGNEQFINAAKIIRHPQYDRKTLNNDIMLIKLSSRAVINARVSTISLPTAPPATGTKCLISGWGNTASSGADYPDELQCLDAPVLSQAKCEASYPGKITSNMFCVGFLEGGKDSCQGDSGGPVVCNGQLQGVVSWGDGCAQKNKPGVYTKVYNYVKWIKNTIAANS

As for `O=C(CN1CCN(S(=O)(=O)c2cc3ccc(Cl)cc3s2)CC1=O)NC1CCNCC1`, the inhibition constant Ki at Coagulation factor X was > 1200 nM.

In the case of `O=C(CN1CCN(S(=O)(=O)c2cc3ccc(Cl)cc3s2)CC1=O)NCc1cccnc1`, the Ki on Coagulation factor X is > 1200 nM.

Compound `O=C(CN1CCN(S(=O)(=O)c2cc3ccc(Cl)cc3s2)CC1=O)NCCc1cccnc1` registered a Ki on Coagulation factor X of 250 nM.

Consider `O=C(CN1CCN(S(=O)(=O)c2cc3ccc(Cl)cc3s2)CC1=O)NCCCn1ccnc1`, for which, at Coagulation factor X, the Ki is > 1200 nM.

Compound `Nc1nc(CCNC(=O)CN2CCN(S(=O)(=O)c3cc4ccc(Cl)cc4s3)CC2=O)cs1` came in with a Ki on Coagulation factor X of 620 nM.

The compound `O=C(CN1CCN(S(=O)(=O)c2cc3ccc(Cl)cc3s2)CC1=O)Nc1ccncn1` had an inhibitory constant (Ki) at Coagulation factor X of 97 nM.

On Coagulation factor X, `Cn1cnc(CCNC(=O)CN2CCN(S(=O)(=O)c3cc4ccc(Cl)cc4s3)CC2=O)c1` gave a Ki of 430 nM.

Turning to `Cn1cccc1CCNC(=O)CN1CCN(S(=O)(=O)c2cc3ccc(Cl)cc3s2)CC1=O`, at Coagulation factor X, the Ki is > 1200 nM.

Turning to `O=C(CN1CCN(S(=O)(=O)c2cc3ccc(Cl)cc3s2)CC1=O)NCCc1cscn1`, on Coagulation factor X, the Ki turned out to be 160 nM.

Turning to `Nc1cc(CCNC(=O)CN2CCN(S(=O)(=O)c3cc4ccc(Cl)cc4s3)CC2=O)ccn1`, affinity at Coagulation factor X was put at a Ki of 140 nM.

For the compound `O=C(CN1CCN(S(=O)(=O)c2cc3ccc(Cl)cc3s2)CC1=O)Nc1ccccc1`, the Ki on Coagulation factor X was > 1200 nM.

For the compound `Cc1[nH]cnc1CCNC(=O)CN1CCN(S(=O)(=O)c2cc3ccc(Cl)cc3s2)CC1=O`, the Ki on Coagulation factor X stood at 340 nM.

Consider `O=C(CN1CCN(S(=O)(=O)c2cc3ccc(Cl)cc3s2)CC1=O)NCCc1ccncc1`, for which affinity on Coagulation factor X was put at a Ki of 59 nM.

As to `COC(=O)[C@H](Cc1c[nH]cn1)NC(=O)CN1CCN(S(=O)(=O)c2cc3ccc(Cl)cc3s2)CC1=O`, at Coagulation factor X, the Ki was > 1200 nM.

Compound `O=C(CN1CCN(S(=O)(=O)c2cc3ccc(Cl)cc3s2)CC1=O)NCCc1c[nH]c(S)n1` gave a Ki at Coagulation factor X of 620 nM.

As to `CN(C(=O)CN1CCN(S(=O)(=O)c2cc3ccc(Cl)cc3s2)CC1=O)c1ccncc1`, the Ki on Coagulation factor X is > 1200 nM.

For `O=C(CN1CCN(S(=O)(=O)c2cc3ccc(Cl)cc3s2)CC1=O)NCCn1ccnc1`, at Coagulation factor X, the Ki was > 1200 nM.

At Coagulation factor X, `O=C(CN1CCN(S(=O)(=O)c2cc3ccc(Cl)cc3s2)CC1=O)NCCc1ccccn1` returned a Ki of 140 nM.

Consider `Cn1cncc1CCNC(=O)CN1CCN(S(=O)(=O)c2cc3ccc(Cl)cc3s2)CC1=O`, for which the Ki in test [1] was > 8700 nM; on Coagulation factor X, 12 nM; at Prothrombin it was > 4000 nM; in test [2], > 18000 nM; on Serine protease 1 [3], > 2900 nM; at Plasminogen it was > 7300 nM.

As for `O=C(CN1CCN(S(=O)(=O)c2cc3ccc(Cl)cc3s2)CC1=O)Nc1ccncc1`, the Ki on Coagulation factor X was found to be 170 nM.

As for `Cc1ncsc1CCNC(=O)CN1CCN(S(=O)(=O)c2cc3ccc(Cl)cc3s2)CC1=O`, at Coagulation factor X, the affinity, expressed as Ki, was 270 nM.

Turning to `COC(=O)[C@@H](Cc1cnc[nH]1)NC(=O)CN1CCN(S(=O)(=O)c2cc3ccc(Cl)cc3s2)CC1=O`, on Coagulation factor X, the Ki is > 1200 nM.

Consider `O=C(CN1CCN(S(=O)(=O)c2cc3ccc(Cl)cc3s2)CC1=O)Nc1cccnc1`, for which the Ki at Coagulation factor X is > 1200 nM.

For the compound `O=C(CN1CCN(S(=O)(=O)c2cc3ccc(Cl)cc3s2)CC1=O)NCCc1cnc[nH]1`, the Ki at Serine protease 1 [4] is > 2900 nM; in test [5] it was > 8700 nM; at Coagulation factor X, 21 nM; at Prothrombin, > 4000 nM; in test [2], > 18000 nM; on Plasminogen it was > 7300 nM.
